Assay results: PubChem BioAssay AID1996
≈ marks a conversion by molar mass, not a printed value.

Details: buffer; pH 7.4; 200.0 µM

SMILES | solubility kinetic
NC(=O)c1ccc(Oc2ccc(Cl)cc2)c([N+](=O)[O-])c1 | 2 µg/mL (≈ 6.83 µM)
Cc1ccc(N2CC(O)=C(c3ccccc3)C2=N)cc1 | > 39.6 µg/mL
CN1CCN(c2ccccc2NC(=O)c2ccccc2F)CC1 | > 47 µg/mL
COc1cc(/C=C/C(=O)NC(=O)c2ccccc2O)ccc1O | > 47 µg/mL
CN(Cc1ccccc1)C(=O)COC(=O)/C=C/c1ccco1 | > 44.9 µg/mL
COc1ccc(CNC(=O)CSc2nc3cccnc3s2)cc1 | 36.3 µg/mL (≈ 105 µM)
C=CCn1c(O)c(/C=N/NC(=O)c2ccncc2)c(=O)[nH]c1=O | > 47.3 µg/mL
Cc1cc(C(=O)OCC(=O)NC2(C#N)CCCCC2)c(C)o1 | > 45.7 µg/mL
Cn1c(N)c(C(=O)COC(=O)C2=NNC(=O)CC2)c(=O)n(C)c1=O | > 50.6 µg/mL
S=C(NCCCN1CCOCC1)Nc1cccc(Cl)c1 | > 47.1 µg/mL
Cc1csc(SCC(=O)NC2CCS(=O)(=O)C2)n1 (stereo unspecified) | > 46 µg/mL
Cl.NCc1ccccc1CS(=O)(=O)N1CCOCC1 | > 46 µg/mL
N#Cc1cnc(NCc2ccc(Cl)cc2Cl)nc1 | 0.5 µg/mL (≈ 1.79 µM)
O=C(c1c[nH]c2ccccc2c1=O)N1CCCCCC1 | > 40.5 µg/mL
CC1(C)CC2(C)OCCN2C(=S)N1 (stereo unspecified) | > 30 µg/mL
Cc1cc(C)c(-c2nc3ccccc3s2)[nH]1 | 0.8 µg/mL (≈ 3.5 µM)
O=C1C2C3C=CC(CC3)C2C(=O)N1c1ccc([N+](=O)[O-])cc1 (stereo unspecified) | 3.4 µg/mL (≈ 11.4 µM)
CCc1c(C)c(C#N)c2[nH]c3ccccc3n2c1=S | 6.6 µg/mL (≈ 24.7 µM)
CCOC(=O)C1=C(O)/C(=C/c2cc(C)n(-c3ccccc3)c2C)N=C1C | 30.7 µg/mL (≈ 87.6 µM)
O=c1c2ccccc2[nH]c(=S)n1-c1ccc2c(c1)OCCO2 | 4.5 µg/mL (≈ 14.4 µM)
O=C(COC(=O)C12CC3CC(CC(Cl)(C3)C1)C2)N1CCCCC1 | 27.5 µg/mL (≈ 80.9 µM)

SMILES | solubility kinetic
O=C(Cc1ccc(F)cc1)Nc1ccc(Cl)cn1 | 8.1 µg/mL (≈ 30.6 µM)
CNS(=O)(=O)c1cc(Nc2ncnc3sccc23)ccc1C | 2.5 µg/mL (≈ 7.48 µM)
O=C(C1CCC1)N1CCC(O)(c2cccc(F)c2)CC1 | 39.4 µg/mL (≈ 142 µM)
COc1ccc(CCNC(=O)c2c(C)nc3ccccn23)cc1 | 43 µg/mL (≈ 139 µM)
Cc1cc(C)c(NC(=O)Nc2ccccc2)c(C)n1 | 34.3 µg/mL (≈ 134 µM)
CCCCN1CC(O)=C(c2nc(-c3ccc(Br)cc3)cs2)C1=N | < 0.3 µg/mL
Cc1cccc(-n2ccnc2CN2CCN(C(C)C)C(CCO)C2)c1 (stereo unspecified) | 49.7 µg/mL (≈ 145 µM)
CN(CC(=O)Nc1ccc(Cl)cc1)C(=O)Cc1c(F)cccc1Cl | 14.6 µg/mL (≈ 39.5 µM)
Cl.N=C(N)SCP(=O)(c1ccccc1)c1ccccc1 | > 49 µg/mL
COC(=O)c1c(C(=O)OC)c2ccccn2c1C(=O)c1ccccc1 | 6.2 µg/mL (≈ 18.4 µM)
CC(OC(=O)Cn1ccccc1=O)C(=O)Nc1cc(Cl)cc(Cl)c1 (stereo unspecified) | > 55.4 µg/mL
N#CCN1C(=O)NC2(CCCc3sccc32)C1=O (stereo unspecified) | > 39.2 µg/mL
Cn1c(=O)c2cc3ccccc3nc2n(C)c1=O | 4.3 µg/mL (≈ 17.8 µM)
Cc1cn2c(N)c(/C=C3\C=Nc4ccccc43)c(=O)nc2s1 | < 0.2 µg/mL
Cc1cc(C)nc(SCC(=O)c2ccc(F)c(C)c2)n1 | 14.7 µg/mL (≈ 50.6 µM)
CCOc1ccc(NC(=O)COC(=O)c2ccc(S(=O)(=O)N3CCOCC3)cc2)cc1 | 25.9 µg/mL (≈ 57.7 µM)
Cn1c(C(=O)Nc2ccc(Cl)cc2)cc2cc(Cl)ccc21 | < 0.3 µg/mL
Cc1cccc(C)c1NC(=O)COC(=O)c1cc[n+]([O-])cc1 | > 45 µg/mL
CCCN1CNc2c(c(=O)[nH]c(=S)n2CCc2ccccc2)C1 | 1.7 µg/mL (≈ 5.14 µM)
O=C(Nc1cc([N+](=O)[O-])ccc1O)NC1CCS(=O)(=O)C1 (stereo unspecified) | > 47.3 µg/mL
CC(C)C(OC(=O)c1cccs1)C(=O)NCc1ccccc1 (stereo unspecified) | 29.4 µg/mL (≈ 92.6 µM)

SMILES | solubility kinetic
N/C(=N/OC(=O)c1ccc(Cl)cc1)c1ncc([N+](=O)[O-])s1 | 0.2 µg/mL (≈ 0.612 µM)
COc1ccc(NC(=O)N2CCCc3cc(C)ccc32)c(OC)c1 | 27.8 µg/mL (≈ 85.2 µM)
Cc1c(NS(=O)(=O)c2cc(C(=O)N3CCCC(C)C3)ccc2Cl)c(=O)n(-c2ccccc2)n1C (stereo unspecified) | > 75.5 µg/mL
Cc1ccc(NC(=O)CNC(=O)COc2ccccc2)nc1 | 14.9 µg/mL (≈ 49.8 µM)
COc1ccc(C(=O)/C=C2\Sc3ccccc3N2C)cc1 | 0.7 µg/mL (≈ 2.35 µM)
O=c1oc2ccccc2c(N2CCOCC2)c1[N+](=O)[O-] | > 41.4 µg/mL
COc1ccc(NC(=S)Nc2ccc(C)c(Cl)c2)cc1OC | 36.5 µg/mL (≈ 108 µM)
CN1CCN(NC(=O)c2cccc(C(F)(F)F)c2)CC1 | > 43.1 µg/mL
Cc1cccc(-c2nnc(SCC(=O)N3CCCC3)o2)c1 | > 45.5 µg/mL
CC1CCCC(C)N1C(=S)SCC(=O)O (stereo unspecified) | > 37.1 µg/mL
CCC1(C)Cc2c(C#N)c(N)n(-c3ccccc3)c(=S)c2CO1 (stereo unspecified) | 26.4 µg/mL (≈ 81.1 µM)
CC(NC(=O)c1ccco1)C(=O)OCc1cccc(C(F)(F)F)c1 (stereo unspecified) | > 51.2 µg/mL
COc1ccccc1C(=O)Nc1nc2ccccc2[nH]1 | 4.2 µg/mL (≈ 15.7 µM)
O=S(=O)(Cc1ccccc1Cl)NCc1ccccc1 | 32.1 µg/mL (≈ 109 µM)
Cc1csc(NC(=O)CSc2nccn2C)n1 | > 40.3 µg/mL
COc1ccc2c(c1)c(C(C)=O)c(C)n2C | > 32.6 µg/mL
Cc1cc(C(=O)CCl)c(C)n1Cc1ccco1 | > 37.8 µg/mL
COCc1cc(=O)[nH]c2c1c(-c1ccccc1)nn2C | > 40.4 µg/mL
O=C(/C=C/c1cc(Br)ccc1F)Nc1cccnc1 | 2 µg/mL (≈ 6.23 µM)
